Results on three compounds are retold here after patent US20140072654A1, “CANCER WITH METABOLIC THERAPY AND HYPERBARIC OXYGEN” (priority 2011, published 2014).

Where “and” joins values, the source holds several entries; their conditions need not be identical. Identical values can stand only once. Entries after “also recorded” stand apart in the source; their conditions may differ. A value given as a limit tells only on which side of the number the result lay.

Data set [1] deals with rats exposed to hyperbaric oxygen (5 ATA O2). The experiment in a line: CNS oxygen toxicity: latency to seizure (EEG) in rats in hyperbaric oxygen. It counts as in vivo, rat. The note with it: rats; for effect on latency to seizure / CNS-OT (words): 5 ATA O2, ~3 ml (~10 g/kg) gavage 30 min before HBO2; for increase in latency to seizure (LS) compared to control: 5 ATA O2, ~10 g/kg intragastric 30 min before dive, control water. An excerpt: Hyperbaric Chamber HBO2 system consisted of two main elements: 1) a plexiglass chamber (˜3 liter capacity, Diamond Box, Buxco, Electronics Inc., model PLY3114), that housed the rat during the experiment, and 2) a hyperbaric chamber (Reimers System Inc.—7.8 ATA MWP), that contained the plexiglass chamber and functioned as the pressure vessel. Both chambers were connected to an air compressor (oil-less rotary scroll compressor—model DK6086, Powerex).
During each experiment (hyperbaric hyperoxia), both the main chamber and the animal chamber were filled with air (dive profile). Rats were placed into the plexiglass chamber and allowed ten minutes to acclimate, at which time the plexiglass chamber was flushed with 100% 02. The animal was then allowed 15 minutes to acclimate before both chambers were compressed to 5 ATA (58.8 PSIG) at a rate of 0.7 ATA/min. The outer chamber was pressurized using air (capacity ˜205 liters) to minimize the risk of an electrical-induced fire. Each experiment was visually monitored via a live camera. LS was calculated from the moment at which the internal and the external chambers reached 5 ATA until the onset of convulsions, identified as high-amplitude, high frequency spikes lasting 10 to 30 sec, followed by polyspikes and wave formation concurrent with tonic-clonic motions of forelimbs and head. After the onset of seizures, the plexiglass chamber was flushed with air to quickly terminate seizure, and both chambers decompressed to sea level. Decompression rate was 1 ATA/min. Rats were then allowed a 15 min recovery period in air at 1 ATA before being removed from the chamber.
The radiotelemetry system consisted of an implantable 4ET radio-transmitter able to amplify and broadcast signals via a receiver (DSI PhysioTel, model RPC-2) connected to an acquisition interface unit (ACQ 7700 Ponemah) via electrical penetrations in the wall of the hyperbaric chamber. The acquisition interface unit was connected to a computer for real time data collection and storage. The same acquisition unit also recorded chamber pressure and temperature, which were measured, respectively, by […] directly connected to the acquisition system via BNC (Bayonet Neill-Concelman) cables.
Anticonvulsant effect of supplemental ketones was tested in rats exposed to hyperbaric oxygen (5 ATA O2). The effects of ketone esters (KEs) in preventing CNS-OT in rats were assessed before, during and after HBO2 exposure by measuring various parameters.
Adult male Sprague-Dawley rats (n=60) rats (300-450 grams; 3 to 6 month old) were obtained from Harlan, anesthetized in 3-5% isoflurane (in 02) and implanted with a 4ET radio-transmitter (Data Sciences International, DSI) using sterile surgical technique. The rat chamber was ventilated with pure O2 while the hyperbaric chamber, containing the radio-receiver (DSI), was pressurized in parallel with air to 5 atmospheres absolute (ATA). One pair of leads (positive and negative poles) was implanted in the costal diaphragm at the junction with the abdominal wall for diaphragmatic electromyogram (dEMG) signals, one pair of electrodes was inserted in the pectoral muscle to acquire electrocardiogram (ECG) data, and two pairs of wires were embedded in the skull between Bregma and Lambda, with one lead on either side of midline for each pair (EEG recordings). The EMG wires were not inserted into crural diaphragmatic muscle because of the high risk of pneumothorax due to the thinness of the muscle (419 to 630 μm). 4ET radio-transmitters also monitored core body temperature and physical activity. Rats were weighed immediately before surgery and subsequently once every 7 days, just prior to the weekly exposures to HBO2. After surgery, every animal recovered for ≧1 week. The rats were food (not water) deprived for 18 hours prior to the start of the experiment.
In each case animals were gavaged about 30 minutes prior to diving. […]

Data set [2] is described as follows: Blood glucose, blood βHB and body weight of VM-M3 survival study mice.
Another data set has as its system VM-M3/Fluc tumors. The experiment in a line: Tumor bioluminescence in VM-M3/Fluc mice. It counts as in vivo, mouse.
For data set [3] the following is noted: rats.
Data set [4] is described as follows: Blood ketones and glucose after oral gavage in rats. It counts as in vivo, rat. The note with it: for duration of elevation of blood ketones: single oral/intragastric administration; for effect on blood glucose: over 4 hrs, relative to water. The method, then: Whole blood samples (10 μl) were acquired for analysis of glucose and BHB utilizing a commercially available glucose/ketone monitoring system (Nova Max® Plus) at time 0, 30, 60, 120, 180 and 240 min. In addition, heparinized blood samples (200 μl) were collected into Eppendorf tubes at time 0, 30, 60, 120, 180 and 240 min. Samples were processed for the detection and quantification of BHB, AcAc, and acetone. Briefly, samples were chilled on ice for 30 s, centrifuged in a micro-centrifuge (13,000 G) for 3-5 min and plasma (>100 μl), treated with reducing reagent of cold 0.2M sodium borodeuteride (NaBD4; Sigma, 205591, CAS 15681-89-7) dissolved in 0.1M NaOH (8.4 mg NaBD4 in 1 ml of 0.1M NaOH) and then immediately frozen on dry ice before storing at −80° C. Acetone was analyzed at the 60 minute time point, which was the predicted peak of blood AcAc levels (Desrochers et al. 1995). 300 μl of whole blood were collected in addition to the above collections, stabilized with cold 0.2M NaBD4, and then immediately frozen on dry ice. Samples were stored at −80° C. until analyzed for ketones. Internal standards of [^2H6]BHB or [^2H8]isopropanol were added to the treated plasma or blood samples (50 μl or 15 μl) and the BHB, AcAc (as M+1 of BHB) or acetone (as 2-propanol) metabolites were analyzed by gas chromatography-mass spectrometry (GC-MS) using an Agilent 5973 mass spectrometer, linked to a 6890 gas chromatograph equipped with an autosampler. Briefly, GC-MS conditions were either EI or CI mode (electron or chemical ionization mode); the samples were detected by selected ion monitoring as the BHB- and AcAc-trimethylsilyl derivatives (EI) or the derivative of acetone-pentafluorobenzoyl (CI).
KE and BD. […] Blood was collected and processed as described in the previous example.
Ketone measurements were taken at 30, 60, 120, 180 and 240 minutes. Blood plasma was treated with sodium borodeuteride (NaB2H4) to stabilize ketone concentration and then assayed by GC-MS. The rapid rise relating to blood ketones from BD-AcAc2 is due primarily from rapid desterfication in blood and tissues.

A short description of data set [5]: Acute ketosis with supplementation in healthy VM/Dk mice (blood glucose, blood βHB, urine AcAc after feeding). The format is in vivo, mouse. Here is the method: FIG. 34(A)-(C) are graphs showing effect of ketone supplementation on blood glucose, blood βHB, urine AcAc, and body weight in mice. (A-C) blood glucose; (B) blood levels of ketones; and (C) urine AcAc of healthy VM/Dk mice 0-12 hours after feeding following 8 hour fast. […] Error bars represent ±SEM.

In the next data set the test system is VM-M3 metastatic cancer. The experiment in a line: Survival time in VM-M3 mouse model of metastatic cancer. The format is in vivo.
Data set [6] deals with primary cultured cortex neurons. As to the kind of experiment: Superoxide anion production (DHE fluorescence) in neurons treated with HBO or amyloid beta. The settings on record: 60 min, 5 ATA O2; 2 mM ketones. The format is cell-based, rat. Here is the method:
Effect of ketones on superoxide production in neurons treated with Aβ1-42 and HBO and cell viability of U87MG cells was examined Primary dissociated neuronal cultures of the hippocampus and cortex were acquired from Brain Bits LLC, to increase time efficiency and to minimize cost associated with purchasing rats. Hippocampal or cortical tissue from Brain Bits (shipped in Hibernate®) were enzymatically and mechanically dissociated via pipette trituration. Neurons were plated on 12 mm glass coverslips and allowed to adhere for 1-2 hrs in an incubator maintained at 9-20% O2 in a humidified atmosphere. Cultures were maintained in media purchased from Brain Bits, including NbActiv1® and NbActive4. […]
Presence of intracellular ROS is measured by detection of superoxide anion using Dihydroethidium (DHE). […] Cells were washed in PBS and then visualized using fluorescent microscopy or quantified using spectrophotometry. […]
Acquisition and statistical analyses of fluorescence imaging was performed as previously reported (D'Agostino, 2007; Filosa, 2002; Ritucci, 1996; Ritucci, 1997; Ritucci, 1998; Crowe, 1995; Weinlich, 1998; Inglefield, 1998; Inglefield, 1999). Average fluorescence intensity (FI) for each cell is calculated as the percent change in fluorescence from baseline, […], where FIb is the basal fluorescence defined by the two images preceding the experimental recordings. […]

For data set [7] the following is noted: rat; cited from earlier work.
Where [8] appears, read: single oral administration ~10 g/kg.

With `CC(=O)CC(=O)OCCC(C)OC(=O)CC(C)=O` (stereo not drawn) [KE, R,S-1,3-butanediol acetoacetate diester], the “effect on latency to seizure / CNS-OT (words)” value in data set [1] (listed as 1,3-BD AcAc diester) was “delays CNS-OT”. In data set [1] (listed as BD-AcAc2), the “effect on latency to seizure / CNS-OT (words)” value is on record as “most effective KE against CNS-OT; also recorded: significantly increased the latency time to seizure” and the “increase in latency to seizure (LS) compared to control” value (“increase in latency to seizure (LS)” for short) is over 570%. The “increase in latency to seizure (LS)” value in [1] is 574±115% and 574±116%. The “increase in latency to seizure (LS)” value in data set [1] (listed as dKE) was 570%. Besides, in data set [2], the “blood glucose vs controls” value is reported as “lower blood glucose” and the “blood ketones (βHB) vs controls” value is “elevated blood βHB”. Moreover, in the data set on VM-M3/Fluc tumors (VM-M3 mice vs controls), the “tumor growth / bioluminescence” value is “drastically reduced tumor progression”. Further, in the data set on VM-M3/Fluc tumors (day 21 after tumor cell inoculation), the “whole body tumor bioluminescence (ROI), representative animal” value is 1.536×10^6. The “blood pH change, mild nonpathological acidosis (FIG. 25)” value in data set [3] was “from 7.45 to 7.35”. In data set [3] (control pH ~7.5, mean), the “decrease of blood pH compared to control after about 30 minutes” value is given as 0.05 and the “decrease of blood pH compared to control after about one hour” value was found to be 0.1. In addition, the “increase in blood pO2 levels” value in data set [3] (sustained) is reported as “approximately 30%”. Further, the “total ketones about 30 minutes after gavage” value in data set [4] (10 g/kg gavage) is over 5 mM. Further, in [4] (setting [8]), the “blood AcAc” value is over 3 mM and the “blood BHB” value is on record as over 3 mM. In data set [4] (single oral administration, for over 4 hrs), the “sustained elevation of total ketones” value is listed as over 6 mM. Also, in [4], the “duration of elevation of blood ketones” value is 4 h and > 4 h. For the same compound, the “duration of elevation of blood ketones” value in [4] (listed as BD-AcAc2) is “over 4 h”. In addition, in data set [4] (within about 60 minutes after single oral administration), the blood acetone is about 0.7 mM. Besides, in data set [4] (~10 g/kg gavage), the “blood AcAc level” value is “increased significantly more; also recorded: significant increase in BHB and AcAc at 30 minutes”; the “effect on blood glucose” value is on record as “no significant effect on blood glucose levels”. The “blood acetone level” value in data set [4] (~10 g/kg gavage, 60 minutes) is recorded as “significantly higher at 60 minutes”. In data set [4] (~10 g/kg gavage, listed as BD-AcAc2), the “effect on blood glucose” value is “does not elevate blood glucose”. Moreover, the “blood BHB level (words)” value in data set [4] (~10 g/kg gavage, vs control water) was “significant increase in BHB and AcAc at 30 minutes”. For the same compound, in data set [5] (after 8 hour fast), the “time after feeding to significant βHB elevation” value is 4 h. The “ketone bodies elevated, βHB and AcAc” value in data set [5] (blood βHB and urine AcAc) was “elevated both βHB and AcAc”. Also, the “time for which blood glucose was significantly lowered” value in data set [5] (standard chow with ketone supplementation after 8 hour fast) was found to be 4 h. In the data set on VM-M3 metastatic cancer (Example 5, compared to controls), the “increase in mean survival time” value is on record as “approximately 22 days”. Moreover, the “Mean survival” value in the data set on VM-M3 metastatic cancer (Example 5, supplemental ketones, control (SD) 31.2) is given as 52.8 days. Also, in the data set on VM-M3 metastatic cancer (Example 5, vs control (SD)), the “% increase in survival time” value was 69% and 69.2* %.

As for `Cc1ccccc1NC(=N)Nc1ccccc1C` [DTG, 1,3,-di-o-tolylguanidine], the “effect on superoxide anion production under hyperoxia” value in data set [6] is “prevented the hyperoxia-induced increase in superoxide production”.

As usually defined, the LD50 is the dose expected to kill half of the subjects tested. For `CC(C)=O` [Acetone], the 50% lethal dose (LD50) in [7] is over 5000 mg/kg.
